Assay results as given in the NIST ThermoML archive (doi:10.1021/acs.jced.7b00578).
Several values for one entry are separate records, joined by “and”; a condition that tells them apart may be missing. Identical values can stand only once.

Key:
[1] = Molar enthalpy of transition or fusion; conditions: Crystal; DSC
[2] = molar heat capacity at constant pressure; conditions: 101.33 kPa, Extra sensitive DSC
[3] = for vapor or sublimation pressure: Closed cell (Static) method; for Normal melting temperature: DTA

O=C1OCCO1 [ethylene carbonate]
Conditions	Molar enthalpy of transition or fusion [kJ/mol]
[1]	13.5

Conditions	molar heat capacity at constant pressure [J/K/mol]	vapor or sublimation pressure
[2], 262.19 K, Crystal	101.89	–
[2], 264 K, Crystal	102.85	–
[2], 266 K, Crystal	104	–
[2], 268 K, Crystal	105.06	–
[2], 270 K, Crystal	106.2	–
[2], 272 K, Crystal	107.35	–
[2], 274 K, Crystal	108.49	–
[2], 276 K, Crystal	109.72	–
[2], 278 K, Crystal	110.87	–
[2], 280 K, Crystal	112.1	–
[2], 282 K, Crystal	113.33	–
[2], 284 K, Crystal	114.57	–
[2], 286 K, Crystal	115.8	–
[2], 288 K, Crystal	117.03	–
[2], 290 K, Crystal	118.26	–
[2], 292 K, Crystal	119.59	–
[2], 294 K, Crystal	120.91	–
[2], 295.68 K, Crystal	121.96	–
[2], 316.43 K, Liquid	139.49	–
[2], 317 K, Liquid	139.58	–
[2], 318 K, Liquid	139.75	–
[2], 319 K, Liquid	139.84	–
[2], 320 K, Liquid	140.02	–
[2], 321 K, Liquid	140.1	–
[2], 322 K, Liquid	140.28	–
[2], 323 K, Liquid	140.37	–
[2], 323.6 K, Liquid	140.46	–
[3], 272.67 K, Crystal	–	0.00025 kPa
[3], 272.74 K, Crystal	–	0.00026 kPa
[3], 272.8 K, Crystal	–	0.00025 kPa
[3], 272.88 K, Crystal	–	0.00025 kPa
[3], 278.16 K, Crystal	–	0.00051 kPa and 0.00049 kPa
[3], 278.17 K, Crystal	–	0.00049 kPa
[3], 283.05 K, Crystal	–	0.00087 kPa and 0.00088 kPa and 0.00086 kPa
[3], 288.1 K, Crystal	–	0.00154 kPa and 0.00152 kPa and 0.00151 kPa
[3], 292.98 K, Metastable liquid	–	0.0034 kPa and 0.00338 kPa
[3], 293 K, Metastable liquid	–	0.00341 kPa
[3], 293.01 K, Crystal	–	0.00258 kPa and 0.00256 kPa
[3], 293.02 K, Crystal	–	0.00254 kPa and 0.00256 kPa
[3], 297.98 K, Crystal	–	0.00431 kPa and 0.0043 kPa
[3], 297.99 K, Crystal	–	0.00431 kPa
[3], 297.99 K, Metastable liquid	–	0.00518 kPa and 0.0052 kPa and 0.00521 kPa
[3], 298 K, Metastable liquid	–	0.0052 kPa
[3], 302.82 K, Crystal	–	0.00702 kPa and 0.00697 kPa
[3], 302.83 K, Crystal	–	0.00701 kPa
[3], 302.92 K, Metastable liquid	–	0.0078 kPa and 0.00783 kPa
[3], 307.84 K, Crystal	–	0.01131 kPa
[3], 307.84 K, Metastable liquid	–	0.01153 kPa and 0.01158 kPa and 0.01159 kPa
[3], 307.85 K, Crystal	–	0.01133 kPa and 0.0113 kPa
[3], 307.85 K, Metastable liquid	–	0.01159 kPa
[3], 312.82 K, Liquid	–	0.01692 kPa and 0.01693 kPa
[3], 312.83 K, Liquid	–	0.01694 kPa
[3], 317.76 K, Liquid	–	0.02435 kPa
[3], 317.77 K, Liquid	–	0.02435 kPa and 0.02433 kPa
[3], 322.65 K, Liquid	–	0.03439 kPa and 0.03437 kPa
[3], 322.66 K, Liquid	–	0.03443 kPa
[3], 327.75 K, Liquid	–	0.04874 kPa and 0.04875 kPa
[3], 327.76 K, Liquid	–	0.04872 kPa
[3], 327.77 K, Liquid	–	0.04878 kPa
[3], 332.8 K, Liquid	–	0.06796 kPa and 0.06798 kPa and 0.06797 kPa
[3], 337.66 K, Liquid	–	0.09261 kPa
[3], 337.67 K, Liquid	–	0.09259 kPa and 0.09267 kPa
[3], 337.68 K, Liquid	–	0.09275 kPa
[3], 342.68 K, Liquid	–	0.126 kPa
[3], 342.69 K, Liquid	–	0.1261 kPa and 0.1262 kPa
[3], 342.7 K, Liquid	–	0.1262 kPa
[3], 347.63 K, Liquid	–	0.1694 kPa
[3], 347.65 K, Liquid	–	0.1695 kPa
[3], 347.66 K, Liquid	–	0.1696 kPa
[3], 352.45 K, Liquid	–	0.2235 kPa
[3], 352.46 K, Liquid	–	0.2236 kPa
[3], 352.47 K, Liquid	–	0.2238 kPa
[3], 352.49 K, Liquid	–	0.2241 kPa
[3], 357.49 K, Liquid	–	0.296 kPa
[3], 357.5 K, Liquid	–	0.2961 kPa and 0.2962 kPa and 0.2963 kPa
[3], 362.62 K, Liquid	–	0.3906 kPa
[3], 362.63 K, Liquid	–	0.3906 kPa and 0.3907 kPa

Conditions	Normal melting temperature [°C]
[3], Crystal	35.98

CC1CCC(=O)O1 (centres undefined) [γ-valerolactone]
Conditions	Molar enthalpy of transition or fusion [kJ/mol]
[1]	7.1

Liquid
Conditions	molar heat capacity at constant pressure [J/K/mol]	vapor or sublimation pressure
[2], 265.37 K	167.7	–
[2], 270 K	168.6	–
[2], 275 K	169.6	–
[2], 280 K	170.7	–
[2], 285 K	171.81	–
[2], 290 K	172.91	–
[2], 295 K	174.11	–
[2], 300 K	175.31	–
[2], 305 K	176.61	–
[2], 310 K	177.81	–
[2], 315 K	179.11	–
[2], 320 K	180.42	–
[2], 325 K	181.72	–
[2], 330 K	183.02	–
[2], 335 K	184.22	–
[2], 340 K	185.52	–
[2], 345 K	186.72	–
[2], 350 K	187.93	–
[2], 355 K	189.13	–
[2], 358.5 K	189.93	–
[3], 238.07 K	–	0.00014 kPa
[3], 238.08 K	–	0.00015 kPa
[3], 238.09 K	–	0.00015 kPa
[3], 243.06 K	–	0.00026 kPa
[3], 243.07 K	–	0.00026 kPa
[3], 248.13 K	–	0.00048 kPa
[3], 253.14 K	–	0.00082 kPa
[3], 258.15 K	–	0.00138 kPa
[3], 263.14 K	–	0.00228 kPa
[3], 268.14 K	–	0.00369 kPa
[3], 273.14 K	–	0.00586 kPa
[3], 273.15 K	–	0.00586 kPa
[3], 273.63 K	–	0.00612 kPa
[3], 273.64 K	–	0.00612 kPa
[3], 278.14 K	–	0.00912 kPa
[3], 283.14 K	–	0.01396 kPa and 0.01395 kPa
[3], 288.14 K	–	0.02098 kPa and 0.02097 kPa
[3], 288.15 K	–	0.021 kPa
[3], 293.13 K	–	0.03106 kPa
[3], 293.14 K	–	0.03111 kPa and 0.03109 kPa
[3], 298.14 K	–	0.04532 kPa and 0.04531 kPa
[3], 303.13 K	–	0.06501 kPa and 0.06502 kPa
[3], 308.14 K	–	0.09212 kPa and 0.09211 kPa

Conditions	Normal melting temperature [°C]
[3], Crystal	-34.81
